What all share (experiment): relative viability (nuclei count vs DMSO), 5 days (fraction); higher = more cells survive
Compound in experiment [1]: CC[C@H](C)N1C=C(C2=C(C=C(C=C21)C3=CN=C(C=C3)N4CCNCC4)C(=O)NCC5=C(C=C(NC5=O)C)C)C [GSK126] + Cc1nc(Nc2ncc(C(=O)Nc3c(C)cccc3Cl)s2)cc(N2CCN(CCO)CC2)n1 [Dasatinib] (partner 0.075 µM)
In a few lines: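 Cells from lung cancer lines were seeded into 1536-well plates and, one day later, dosed by pin tool. Treatments were either a single drug or a fixed dose of an anchor drug with five library-drug doses (not always all listed) in √10 steps. After 5 days, nuclei were stained in a one-step fixation (final 0.05% Triton X-100, 1% formaldehyde, 1 ug/ml Hoechst) and counted on 4× images, and relative viability is the treated-to-vehicle nuclei ratio, as the median of duplicate plates.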

Compound in experiment [2]: C1CC(C1)(C(=O)O)C(=O)O.[NH2-].[NH2-].[Pt+2] [Carboplatin]
The gist of the method: (§1)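 Lung cancer cell lines in 1536-well plates were kept overnight at 37 °C, then pinned with five library-drug doses (not always all listed) spaced by √10 on vehicle-anchored plates. After 5 days without medium change, cells were fixed, permeabilised and Hoechst-stained in one step, imaged at 4×, and nuclei were counted with MetaXpress. Viability is treated-well nuclei divided by vehicle-well nuclei, taken as the median over plates. Plates passed only with control CV below 25% and at least one doubling.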

Compound in experiment [3]: NS(=O)(=O)OC[C@@H]1C[C@@H](n2ccc3c(N[C@H]4CCc5ccccc54)ncnc32)C[C@@H]1O [MLN4924]
In a few lines:
as §1

Compound in experiment [4]: CC[C@H](C)N1C=C(C2=C(C=C(C=C21)C3=CN=C(C=C3)N4CCNCC4)C(=O)NCC5=C(C=C(NC5=O)C)C)C [GSK126]
The gist of the method:
as §1

For the cell line NCI-H1975, the relative viability worked out at 0.389 in experiment [1] (first compound 0.08 µM); 0.366 in experiment [1] (first compound 0.253 µM); 0.375 in experiment [1] (first compound 0.8 µM); 0.355 in experiment [1] (first compound 2.53 µM); 0.291 in experiment [1] (first compound 8 µM); 1 in experiment [2] (0.08 µM). The relative viability in experiment [2] (0.253 µM) stood at 0.944; in experiment [2] (0.8 µM), 0.968; in experiment [2] (2.53 µM), 0.931; in experiment [2] (8 µM), 0.9; in experiment [3] (0.04 µM) it was 0.96; in experiment [3] (0.1265 µM) it was 1.14. The relative viability came out at 1.38 in experiment [3] (0.4 µM); 0.843 in experiment [3] (1.265 µM); 0.447 in experiment [3] (4 µM); 0.961 in experiment [4] (0.08 µM); 0.888 in experiment [4] (0.253 µM); 0.93 in experiment [4] (0.8 µM). Also, the relative viability in experiment [4] (2.53 µM) was determined as 0.923; in experiment [4] (8 µM), 0.934.
As to NCI-H1993, the relative viability stood at 0.701 in experiment [1] (first compound 0.08 µM); 0.598 in experiment [1] (first compound 0.253 µM); 0.375 in experiment [1] (first compound 0.8 µM); 0.703 in experiment [1] (first compound 2.53 µM); 0.646 in experiment [1] (first compound 8 µM); 0.988 in experiment [2] (0.08 µM). Also, the relative viability in experiment [2] (0.253 µM) came to 1.02; in experiment [2] (0.8 µM) it was 0.967; in experiment [2] (2.53 µM), 0.878; in experiment [2] (8 µM), 0.8; in experiment [3] (0.04 µM) it was 0.877; in experiment [3] (0.1265 µM), 0.758. Also, the relative viability in experiment [3] (0.4 µM) was 0.596; in experiment [3] (1.265 µM) it was 0.531; in experiment [3] (4 µM), 0.658; in experiment [4] (0.08 µM), 0.97; in experiment [4] (0.253 µM), 0.982; in experiment [4] (0.8 µM), 0.955. Moreover, the relative viability stood at 1.02 in experiment [4] (2.53 µM) and 1.03 in experiment [4] (8 µM).
Take NCI-H2009: the relative viability worked out at 0.331 in experiment [1] (first compound 0.08 µM); 0.261 in experiment [1] (first compound 0.253 µM); 0.306 in experiment [1] (first compound 0.8 µM); 0.231 in experiment [1] (first compound 2.53 µM); 0.296 in experiment [1] (first compound 8 µM); 1.05 in experiment [2] (0.08 µM). The relative viability in experiment [2] (0.253 µM) is 0.971; in experiment [2] (0.8 µM) it was 0.95; in experiment [2] (2.53 µM) it was 0.951; in experiment [2] (8 µM) it was 0.683; in experiment [3] (0.04 µM), 0.823; in experiment [3] (0.1265 µM), 0.439. Further, the relative viability is 0.287 in experiment [3] (0.4 µM); 0.136 in experiment [3] (1.265 µM); 0.0977 in experiment [3] (4 µM); 1.12 in experiment [4] (0.08 µM); 0.997 in experiment [4] (0.253 µM); 0.988 in experiment [4] (0.8 µM). Moreover, the figures for the relative viability in experiment [4] (2.53 µM) and in experiment [4] (8 µM) were 0.988 and 1.06, respectively.
Turning to NCI-H2023, the relative viability in experiment [1] (first compound 0.08 µM) was found to be 0.641; in experiment [1] (first compound 0.253 µM), 0.566; in experiment [1] (first compound 0.8 µM), 0.584; in experiment [1] (first compound 2.53 µM), 0.627; in experiment [1] (first compound 8 µM), 0.661; in experiment [2] (0.08 µM), 1.1. Moreover, the relative viability worked out at 1.08 in experiment [2] (0.253 µM); 0.959 in experiment [2] (0.8 µM); 0.572 in experiment [2] (2.53 µM); 0.249 in experiment [2] (8 µM); 0.986 in experiment [3] (0.04 µM); 0.739 in experiment [3] (0.1265 µM). Besides, the relative viability is 0.207 in experiment [3] (0.4 µM); 0.0741 in experiment [3] (1.265 µM); 0.0639 in experiment [3] (4 µM); 1.13 in experiment [4] (0.08 µM); 1.04 in experiment [4] (0.253 µM); 1.02 in experiment [4] (0.8 µM). Besides, the relative viability in experiment [4] (2.53 µM) is 1.22; in experiment [4] (8 µM), 1.09.
Take NCI-H2085: the relative viability is 0.248 in experiment [1] (first compound 0.08 µM); 0.234 in experiment [1] (first compound 0.253 µM); 0.285 in experiment [1] (first compound 0.8 µM); 0.287 in experiment [1] (first compound 2.53 µM); 0.217 in experiment [1] (first compound 8 µM); 1.08 in experiment [2] (0.08 µM). The relative viability stood at 1 in experiment [2] (0.253 µM); 0.981 in experiment [2] (0.8 µM); 1.01 in experiment [2] (2.53 µM); 0.905 in experiment [2] (8 µM); 0.978 in experiment [3] (0.04 µM); 1.01 in experiment [3] (0.1265 µM). Further, the relative viability in experiment [3] (0.4 µM) worked out at 1.12; in experiment [3] (1.265 µM) it was 0.772; in experiment [3] (4 µM), 0.541; in experiment [4] (0.08 µM), 1.06; in experiment [4] (0.253 µM) it was 1.05; in experiment [4] (0.8 µM), 0.958. For the same cell line, the relative viability in experiment [4] (2.53 µM) was 0.943; in experiment [4] (8 µM) it was 1.02.

Source of the values: the supplement of paper PMC10307832.
